What is called EC50 is the concentration giving half of the maximal effect. What is called pEC50 is −log10 of the EC50, conventionally taken in molar units.

Structures are written as SMILES.

The assay in a line: Inhibition of HIV1 gp120 binding to CD4 in human HeLa cells by cell fusion assay. The class given is cell-based, Human immunodeficiency virus 1.
Compound `Cc1cccc2c(C(=O)C(=O)N3CCN(C(=O)c4ccccc4)CC3)c[nH]c12` returned a half-maximal effective concentration (EC50) of 89.5 nM and a pEC50 of 7.05.
The corresponding values for `O=C(C(=O)N1CCN(C(=O)c2ccccc2)CC1)c1c[nH]c2ccccc12` are 153 nM and 6.82.
For the compound `Cc1ccc(F)c2c(C(=O)C(=O)N3CCN(C(=O)c4ccccc4)CC3)c[nH]c12`, the EC50 turned out to be 0.56 nM and the negative-log EC50 (pEC50) turned out to be 9.25.
On the same counts, the results for `O=C(C(=O)N1CCN(C(=O)c2ccccc2)CC1)c1c[nH]c2c(Cl)cccc12` are 4.4 nM and 8.36.
The corresponding values for `COc1cccc2[nH]cc(C(=O)C(=O)N3CCN(C(=O)c4ccccc4)CC3)c12` are 0.52 nM and 9.28.
With `O=C(C(=O)N1CCN(C(=O)c2ccccc2)CC1)c1c[nH]c2ccc(Br)cc12`, the half-maximal effective concentration (EC50) was 1090 nM and the negative logarithm of the EC50 (pEC50) was found to be 5.96.
The corresponding values for `COc1ccc2c(C(=O)C(=O)N3CCN(C(=O)c4ccccc4)CC3)c[nH]c2c1` are 329 nM and 6.48.
For the compound `N#Cc1ccc(F)c2c(C(=O)C(=O)N3CCN(C(=O)c4ccccc4)CC3)c[nH]c12`, the midpoint of the response, the EC50, lay at 1.9 nM and the negative logarithm of the EC50 (pEC50) came to 8.72.
In the case of `COc1ccc(Br)c2[nH]cc(C(=O)C(=O)N3CCN(C(=O)c4ccccc4)CC3)c12`, the EC50 was 0.13 nM and the negative logarithm of the EC50 (pEC50) was determined as 9.89.
In the case of `O=C(C(=O)N1CCN(C(=O)c2ccccc2)CC1)c1c[nH]c2cccc(Cl)c12`, the concentration for a half-maximal effect (EC50) was 4.3 nM and the pEC50 is given as 8.37.
With `O=C(C(=O)N1CCN(C(=O)c2ccccc2)CC1)c1c[nH]c2ccc(Cl)cc12`, the concentration giving a half-maximal response (EC50) was determined as 395 nM and the pEC50 amounted to 6.4.
The corresponding values for `O=C(C(=O)N1CCN(C(=O)c2ccccc2)CC1)c1c[nH]c2cccc(F)c12` are 2.59 nM and 8.59.
In turn, `CC(=O)Oc1ccc2[nH]cc(C(=O)C(=O)N3CCN(C(=O)c4ccccc4)CC3)c2c1` displayed an EC50 of 952 nM and a negative logarithm of the EC50 (pEC50) of 6.02.
Regarding `Cn1cc(C(=O)C(=O)N2CCN(C(=O)c3ccccc3)CC2)c2ccccc21`, the EC50 stood at 265 nM and the pEC50 is listed as 6.58.
On the same counts, the results for `O=C(C(=O)N1CCN(C(=O)c2ccccc2)CC1)c1c[nH]c2c(F)c(F)c(F)c(F)c12` are 1.7 nM and 8.77.
Compound `O=C(C(=O)N1CCN(C(=O)c2ccccc2)CC1)c1c[nH]c2ccc([N+](=O)[O-])cc12` displayed an EC50 of 3800 nM and a negative-log EC50 (pEC50) of 5.42.
The corresponding values for `O=C(C(=O)N1CCN(C(=O)c2ccccc2)CC1)c1cn(Cc2ccccc2)c2ccccc12` are 13800 nM and 4.86.
On the same counts, the results for `CCOc1cccc2[nH]cc(C(=O)C(=O)N3CCN(C(=O)c4ccccc4)CC3)c12` are 0.45 nM and 9.35.
On the same counts, the results for `COc1ccc(OC)c2c(C(=O)C(=O)N3CCN(C(=O)c4ccccc4)CC3)c[nH]c12` are 0.23 nM and 9.64.
In turn, `O=C(C(=O)N1CCN(C(=O)c2ccccc2)CC1)c1c[nH]c2c(Br)cc(F)cc12` displayed an EC50 of 73.1 nM and a negative logarithm of the EC50 (pEC50) of 7.14.
On the same counts, the results for `O=C(C(=O)N1CCN(C(=O)c2ccccc2)CC1)c1c[nH]c2cccc(Br)c12` are 4.5 nM and 8.35.
The corresponding values for `CCn1cc(C(=O)C(=O)N2CCN(C(=O)c3ccccc3)CC2)c2ccccc21` are 1450 nM and 5.84.
On to `O=C(C(=O)N1CCN(C(=O)c2ccccc2)CC1)c1c[nH]c2c(F)cccc12`, for which the EC50 amounted to 7.3 nM and the pEC50 worked out at 8.14.
Regarding `O=C(C(=O)N1CCN(C(=O)c2ccccc2)CC1)c1c[nH]c2c(F)ccc(Br)c12`, the response was half-maximal at 8.2 nM (EC50) and the pEC50 is 8.09.
On the same counts, the results for `O=C(C(=O)N1CCN(C(=O)c2ccccc2)CC1)c1c[nH]c2cc(F)ccc12` are 21.1 nM and 7.68.
The corresponding values for `CC(=O)Oc1cccc2[nH]cc(C(=O)C(=O)N3CCN(C(=O)c4ccccc4)CC3)c12` are 24900 nM and 4.6.
On the same counts, the results for `COc1ccc(Cl)c2[nH]cc(C(=O)C(=O)N3CCN(C(=O)c4ccccc4)CC3)c12` are 0.07 nM and 10.15.
For the compound `Cc1ccc2[nH]cc(C(=O)C(=O)N3CCN(C(=O)c4ccccc4)CC3)c2c1`, the EC50 was 1550 nM and the negative logarithm of the EC50 (pEC50) is on record as 5.81.
Compound `O=C(C(=O)N1CCN(C(=O)c2ccccc2)CC1)c1c[nH]c2c(Br)ccc(F)c12` yielded an EC50 of 0.13 nM and a negative logarithm of the EC50 (pEC50) of 9.89.
The corresponding values for `CCOc1cccc2c(C(=O)C(=O)N3CCN(C(=O)c4ccccc4)CC3)c[nH]c12` are 0.5 nM and 9.3.
`N#Cc1ccc2[nH]cc(C(=O)C(=O)N3CCN(C(=O)c4ccccc4)CC3)c2c1` gave an EC50 of 121000 nM and a pEC50 of 3.92.
On to `CCCCn1cc(C(=O)C(=O)N2CCN(C(=O)c3ccccc3)CC2)c2ccccc21`, for which the half-maximal effective concentration (EC50) is 2650 nM and the pEC50 worked out at 5.58.
The corresponding values for `CCc1cccc2c(C(=O)C(=O)N3CCN(C(=O)c4ccccc4)CC3)c[nH]c12` are 24.2 nM and 7.62.
`COc1ccc(C#N)c2[nH]cc(C(=O)C(=O)N3CCN(C(=O)c4ccccc4)CC3)c12` showed a 50% effective concentration (EC50) of 0.06 nM and a negative logarithm of the EC50 (pEC50) of 10.22.
Compound `O=C(C(=O)N1CCN(C(=O)c2ccccc2)CC1)c1c[nH]c2cc(Cl)ccc12` showed a 50% effective concentration (EC50) of 208 nM and a negative-log EC50 (pEC50) of 6.68.
The corresponding values for `O=C(C(=O)N1CCN(C(=O)c2ccccc2)CC1)c1c[nH]c2cc(Cl)c(Cl)cc12` are 500 nM and 6.3.
In turn, `O=C(C(=O)N1CCN(C(=O)c2ccccc2)CC1)c1c[nH]c2c(Br)ccc(OC(F)(F)F)c12` gave an EC50 of 42.8 nM and a pEC50 of 7.37.
The corresponding values for `O=C(C(=O)N1CCN(C(=O)c2ccccc2)CC1)c1c[nH]c2cc(F)cc(F)c12` are 0.42 nM and 9.38.
`CCCCOc1cccc2c(C(=O)C(=O)N3CCN(C(=O)c4ccccc4)CC3)c[nH]c12` gave a concentration for a half-maximal effect (EC50) of 0.14 nM and a pEC50 of 9.85.
`O=C(C(=O)N1CCN(C(=O)c2ccccc2)CC1)c1c[nH]c2cccc(O)c12`: a half-maximal response (EC50) required 20100 nM and the pEC50 is given as 4.7.
On the same counts, the results for `O=C(C(=O)N1CCN(C(=O)c2ccccc2)CC1)c1c[nH]c2c(OCC(F)(F)F)ccc(F)c12` are 0.71 nM and 9.15.
`O=C(C(=O)N1CCN(C(=O)c2ccccc2)CC1)c1c[nH]c2ccc(F)cc12` showed an EC50 of 838 nM and a negative logarithm of the EC50 (pEC50) of 6.08.
The corresponding values for `COc1cc2[nH]cc(C(=O)C(=O)N3CCN(C(=O)c4ccccc4)CC3)c2cc1OC` are 46500 nM and 4.33.
On to `C=CCn1cc(C(=O)C(=O)N2CCN(C(=O)c3ccccc3)CC2)c2ccccc21`, for which the 50% effective concentration (EC50) was 6760 nM and the negative-log EC50 (pEC50) came to 5.17.
The corresponding values for `O=C(C(=O)N1CCN(C(=O)c2ccccc2)CC1)c1c[nH]c2c(F)ccc(F)c12` are 0.35 nM and 9.46.
As to `N#Cc1cccc2c(C(=O)C(=O)N3CCN(C(=O)c4ccccc4)CC3)c[nH]c12`, the EC50 came out at 4.9 nM and the pEC50 is on record as 8.31.
The corresponding values for `O=C(C(=O)N1CCN(C(=O)c2ccccc2)CC1)c1c[nH]c2cc(F)c(Br)c(F)c12` are 23.1 nM and 7.64.
`O=C(C(=O)N1CCN(C(=O)c2ccccc2)CC1)c1c[nH]c2c(Br)cccc12` came in with an EC50 of 17.4 nM and a pEC50 of 7.76.
In turn, `O=C(C(=O)N1CCN(C(=O)c2ccccc2)CC1)c1c[nH]c2cccc([N+](=O)[O-])c12` registered an EC50 of 150 nM and a pEC50 of 6.82.
On the same counts, the results for `COc1ccc(F)c2c(C(=O)C(=O)N3CCN(C(=O)c4ccccc4)CC3)c[nH]c12` are 0.06 nM and 10.22.
Take `COc1cccc2c(C(=O)C(=O)N3CCN(C(=O)c4ccccc4)CC3)c[nH]c12`: the midpoint of the response, the EC50, lay at 6.6 nM and the pEC50 was 8.18.
Regarding `COc1ccc2[nH]cc(C(=O)C(=O)N3CCN(C(=O)c4ccccc4)CC3)c2c1`, the EC50 is 21100 nM and the pEC50 was 4.68.

For the origin of these results see ChEMBL document CHEMBL1157860, “CoMFA and CoMSIA studies on HIV-1 attachment inhibitors” (Eur J Med Chem, 2010).
